Where “and” joins values, the source holds several entries; their conditions need not be identical. Equal entries are not always repeated.
What was measured:
[1] = test system: ADDP (subclone of A2780) versus A2780 ovarian cancer cell lines; assay: Resistance factor, GI50 in ADDP/GI50 in A2780; assay type: cell-based
[2] = Lipophilicity by RP-HPLC (logkw); assay type: physicochemical; settings: capacity factor in 100% water
Description: HPLC experiments were carried out using an Agilent Technologies (Melbourne, Australia) 1260 Infinity instrument, equipped with a Phenomenex (Sydney, Australia) Onyx^TM Monolithic C18 reverse phase column (100 × 4.6 mm, 130 Å). The mobile phase was made up of 0.06% TFA in water (solvent A) and 0.06% TFA in an acetonitrile:water (9:1) mixture (solvent B). Samples were eluted over a gradient of 0–100% (% B) for 15 min, at a flow rate of 1 mL/min, with a sample injection volume of 10 µL. Eluting peaks were detected using a PDA at 254 nm.
For lipophilicity experiments, RP-HPLC was utilised to determine the logkw of each compound, similarly to what has been previously published for similar complexes. Samples were eluted at various isocratic percentages, ranging from 18–30% solvent B. To determine the dead volume of the column, potassium iodide was used as an external dead volume marker. The retention time of each sample in each isocratic run ( tr ) and the dead volume time ( t0 ) were both substituted in Equation (1) to calculate the capacity factor ( k ). (1) k=tr−t0/t0
Following this, logk was plotted against the percentage of ACN. For each complex, a minimum of four concentrations of ACN were used. This produced a linear graph with the equation in the form:(2) logk=Sφ+logkw where S is the slope, φ is the percentage of ACN, and logkw is the y-intercept, which represents the capacity factor of the compound in 100% water.
It is important to explore the lipophilicity of a drug, as it is widely believed that increased lipophilicity results in greater cellular accumulation. To understand the lipophilicity of 1–4, RP-HPLC was utilised to determine the logkw of each complex. To calculate this, each complex was eluted at different isocratic percentages, whereby the retention time was used in Equation (1) to calculate the capacity factor (k). The percentage of the organic solvent was then plotted against log k for each isocratic percentage, producing a linear equation that allowed for logkw to be deduced using Equation (2) (Figure S38). The logkw value represents the capacity factor of the compound in 100% water and can be used to compare a series of compounds. Since 1–4 comprise the same axially bound ligand, biotin, the lipophilicity was influenced by the groups on the PL. The logkw of each complex is presented in Table 1, with their corresponding PL. The increasing lipophilicity of the complexes followed the order: 1 < 4 < 2 < 3.

## COc1cc[n+]2c3c1ccc1c(OC)cc[n+](c13)[Pt-2]21([OH])([O]C(=O)CCCC[C@@H]2SC[C@@H]3NC(=O)N[C@@H]32)[NH2+][C@H]2CCCC[C@@H]2[NH2+]1.O=[N+]([O-])[O-].O=[N+]([O-])[O-] [Complex 3, [Pt(4,7-dimethoxy-1,10-phenanthroline)(1S,2S-diaminocyclohexane)(biotin)(hydroxido)](NO3)2]
[1]
  Resistance factor (RF): 0.459 and 0.46
[2]
  logkw: 0.96

Reference: article PMC9853328, “Potent Platinum(IV) Prodrugs That Incorporate a Biotin Moiety to Selectively Target Cancer Cells” (Pharmaceutics, 2022)
